Assay results from patent US9763900B2, “Chemical chaperonins as novel molecular modulators of beta protein aggregation present in conformational diseases” (Centro de Neurociencias de Cuba (NEURONIC), priority 2013, dated 2017).

Assays:
[1] = Tubis et al. 1960; cited from earlier work
[2] = test system: rat Cerebellar Granular Cells (CGC); test: Cell viability (MTT) of CGC exposed to IAPP 20-29 monomer or aggregated; format: cell-based
Protocol: The solutions fragment of IAPP 20-29 (MM 1029 Da) are prepared in PBS buffer (100 mM, pH 7.4; NaCl 100 mM). Monomeric peptide concentration was 5.8 mM and the aggregation peptide was 32.6 μM in DMSO. Protein concentration is calculated using the calibration curve.
Chaperonin: solutions of chaperonin B and D (25 μM), selected as non-limiting examples of Formula I, are prepared in 1.2 mL of DMSO and dilute with the buffer to obtain a final volume of […]. Curcumin (5.5 mM) used as reference compound was prepared in ethanol. (Yang, F. et al. in J. Biol Chem 2005, 280, 5892-5901). […]
In particular, in this invention, the viability of CGC cell cultures was assessed with the 20-29 fragment of IAPP, in its monomeric and aggregated form or with the mixtures of protein:chaperonin at different molar ratios. Briefly, in all samples of CGC, half of the volume of medium is removed to add, independently, the quantities of tested protein or mixtures of peptide:chaperonin with different molar ratios (1:0.3 or 1:1). […]
In FIG. 12, the results of the assessment of cell viability was observed by MTT assay, which were analyzed by the one-way ANOVA statistical test, followed by a posteriori LSD test (LSD for its acronym in English Least Significant Difference).

Row | SMILES | Fraction able to cross the blood brain barrier (BBB) [1] [%] | CGC viability with IAPP monomer plus reference compound versus monomer alone ([2]; IAPP 20-29 monomer, 20 hours, p>0.05) | CGC viability with aggregated IAPP 20-29 plus compound versus aggregated fragment alone ([2]; aggregated form of IAPP 20-29, 20 hours)
1 | Nc1c(/N=N/c2ccc(-c3ccc(/N=N/c4cc(S(=O)(=O)O)c5ccccc5c4N)cc3)cc2)cc(S(=O)(=O)O)c2ccccc12 [CR, Congo Red] | 0.03 |  | 
2 | COc1cc(/C=C/C(=O)CC(=O)/C=C/c2ccc(O)c(OC)c2)ccc1O [curcumin] |  | no significant differences | marked cytoprotective effect
